From PMC7466280 (Cell, 2020)
Where two headings read alike, the source gives them in different places.

Legend:
[1] = biological target: T1, NTSR1 (Homo sapiens, UniProt P30989); assay: Gq protein activation by TGFα shedding assay; format: cell-based; conditions: for effect on NTS-induced Gq activation: in combination with NTS; for Gq activation: ligand alone
[2] = biological target: T1, NTSR1; assay: NTSR1 internalization assay; format: cell-based
[3] = biological target: T1, NTSR1; assay: Confocal β-arrestin2 translocation assay in U2OS cells; format: cell-based; conditions: for β-arrestin2 translocation: NTSR1-expressing U2OS cells, ligand alone
[4] = biological target: T1, NTSR1; assay: BRET β-arrestin2 recruitment assay in HEK293T cells; format: cell-based
[5] = biological target: T1, NTSR1; assay: Apo-aequorin calcium assay; format: cell-based; conditions: for effect on NTS-induced Ca2+ mobilization: in combination with NTS (10 nM); for Ca2+ mobilization: ligand alone
[6] = biological target: T1, NTSR1; assay: Phosphorylated ERK detection by western blot; format: cell-based
[7] = biological target: T1, NTSR1; assay: Radioligand binding to NTSR1-containing HEK293T cell membranes
[8] = biological target: T1, NTSR1; assay: IP3 BRET assay; format: cell-based; conditions: for effect on NTS-induced IP3 production: in combination with NTS; for IP3 generation: ligand alone, SBI-553 10 μM, SR142948A 10 μM
[9] = biological target: T1, NTSR1; assay: Phosphorylated NTSR1 detection by western blot; format: cell-based; conditions: NTSR1-expressing HEK293T cells; NTS 10 nM, SBI-553 10 μM, SR142948A 10 μM
[10] = test system: C57BL/6J mice; assay: Stimulant-induced hyperlocomotion in the open field; format: in vivo, mouse; conditions: 12 mg/kg i.p.
[11] = test system: C57BL/6J mice; assay: Contact righting test; format: in vivo, mouse; conditions: PD149163 i.p. 120 min, SBI-553 i.p. (up to 30 mg/kg) 30 min prior to testing
[12] = test system: C57BL/6J mice; assay: Core body temperature measurement; format: in vivo, mouse; conditions: PD149163 0.1 – 1 mg/kg i.p.; SBI-553 2–30 mg/kg i.p.
[13] = test system: C57BL/6J mice; assay: Horizontal wire test; format: in vivo, mouse; conditions: PD149163 i.p. 120 min, SBI-553 i.p. (up to 30 mg/kg) 30 min prior to testing
[14] = test system: C57BL/6J mice; assay: Methamphetamine conditioned place preference; conditions: 12 mg/kg i.p. 15 min prior to test
[15] = test system: C57BL/6J mice; assay: Blood pressure measurement; format: in vivo, mouse; conditions: SBI-553 12 mg/kg i.p.; PD149163 0.3 mg/kg i.p.; 60 minutes post-treatment
[16] = test system: C57BL/6J mice; assay: Oral SBI-553 modulation of PD149163-induced hypothermia and hypoactivity; format: in vivo, mouse; conditions: SBI-553 10, 30, 100 mg/kg p.o. 30 min prior to PD149163 i.p.
[17] = test system: β-arrestin2 KO mice; format: in vivo, mouse; conditions: 12 mg/kg i.p.; for cocaine-induced hyperlocomotion: cocaine 30 mg/kg i.p.
[18] = test system: C57BL/6J mice; assay: Intravenous cocaine self-administration; format: in vivo, mouse
[19] = test system: DAT KO mice; assay: L-DOPA-induced restoration of locomotion in dopamine depleted DAT KO mice; format: in vivo, mouse; conditions: 12 mg/kg i.p., AMPT dopamine-depleted DAT KO mice
[20] = HEK293T cells expressing human NTSR1, SBI-553 10 μM, SR142948A 10 μM
[21] = low-concentration NTS, maximal levels not altered
[22] = 12 mg/kg i.p., cocaine 0.1 mg/kg/infusion
[23] = [3H]NTS saturation binding with SBI-553 0.01 – 10 μM

T1 sequence (P30989 whole entry): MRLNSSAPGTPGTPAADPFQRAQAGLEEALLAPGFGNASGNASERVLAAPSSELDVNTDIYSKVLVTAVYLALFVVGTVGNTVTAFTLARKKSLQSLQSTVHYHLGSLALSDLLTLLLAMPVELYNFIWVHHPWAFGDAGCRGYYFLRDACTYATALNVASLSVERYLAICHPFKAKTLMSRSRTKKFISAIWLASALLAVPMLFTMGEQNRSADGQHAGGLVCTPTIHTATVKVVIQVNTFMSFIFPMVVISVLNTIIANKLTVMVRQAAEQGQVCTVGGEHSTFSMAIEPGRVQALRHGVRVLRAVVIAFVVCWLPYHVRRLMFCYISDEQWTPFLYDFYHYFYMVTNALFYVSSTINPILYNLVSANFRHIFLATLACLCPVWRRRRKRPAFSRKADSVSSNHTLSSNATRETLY

COc1cccc(OC)c1-c1cc(C(=O)NC2(C(=O)O)C3CC4CC(C3)CC2C4)nn1-c1ccc(C(=O)N(C)CCCN(C)C)cc1C(C)C (stereo not drawn) [SR142948A, reference compound]
effect on NTS-induced Gq activation [1]: attenuated
Gq activation [1]: neither SBI-553 nor the antagonist SR142948A had any effect
block of NTS- and SBI-553-induced NTSR1 internalization ([2]; NTS 10 nM or SBI-553 10 μM): antagonized NTS-induced, but not SBI-553-induced
block of NTS- and SBI-553-induced β-arrestin2 translocation ([3]; NTS 5 nM or SBI-553 10 μM): antagonized NTS-induced, but not SBI-553-induced
β-arrestin2 translocation [3]: without effect
block of NTS- and SBI-553-induced β-arrestin2 recruitment to NTSR1 [4]: antagonized NTS-induced, but not SBI-553-induced
effect on NTS-induced Ca2+ mobilization [5]: attenuated
Ca2+ mobilization [5]: neither SBI-553 nor SR142948A stimulated
effect of pretreatment on NTS-induced pERK [6, 20]: abolished
displacement of [3H]SBI-553 from NTSR1 ([7]; 100 nM [3H]SBI-553, 10 μM unlabeled competitor, YOx beads): not displaced
effect on NTS-induced IP3 production [8]: attenuated
IP3 generation [8]: neither SBI-553 nor SR142948A stimulated

COc1ccccc1C1CCN(c2nc(C3(F)CC3)nc3ccc(N(C)CCO)cc23)CC1 [SBI-553]
NTSR1 phosphorylation (phosphothreonine blot) [9]: resulted in NTSR1 phosphorylation
locomotor response vs vehicle in non-stimulant exposed animals [10]: comparable
cocaine-induced hyperlocomotion ([10]; cocaine 30 mg/kg i.p.): attenuate cocaine-induced hyperlocomotion
methamphetamine-induced hyperlocomotion ([10]; methamphetamine 2 mg/kg): reduced
righting reflex [11]: failed to influence
effect on NTS-induced Gq activation [1]: attenuated
Gq activation [1]: neither SBI-553 nor the antagonist SR142948A had any effect
core body temperature [12]: no effect on core body temperature
NTSR1 internalization ([2]; ligand alone): stimulated NTSR1 internalization
effect of pretreatment on NTS-induced NTSR1 internalization [2, 21]: enhanced
β-arrestin2 translocation in U2OS cells lacking NTSR1 ([3]; NTS 200 nM, SBI-553 7.5 μM, 40 min): Neither NTS nor SBI-553 treatment stimulated β-arrestin2 translocation
β-arrestin2 translocation [3]: stimulated β-arrestin2 translocation to the plasma membrane
effect of pretreatment on NTS-induced β-arrestin2 translocation [3, 21]: enhanced
wire-hang test, latency to grasp the wire [13]: failed to influence
expression of methamphetamine conditioned place preference [14]: blocked the expression of methamphetamine conditioned place preference
peak systolic pressure vs vehicle [15]: no differences
PD149163-induced reduction in core body temperature [16]: dose-dependently attenuated
PD149163-induced reduction in horizontal activity in the open field [16]: dose-dependently attenuated
β-arrestin2 recruitment to NTSR1 ([4]; ligand alone): stimulated β-arrestin2 recruitment
effect of pretreatment on NTS-induced β-arrestin2 recruitment to NTSR1 ([4]; low-concentration NTS): enhanced
effect on NTS-induced Ca2+ mobilization [5]: attenuated
Ca2+ mobilization [5]: neither SBI-553 nor SR142948A stimulated
methamphetamine-induced hyperlocomotion ([17]; A2aR-Cre animals (deletion in striatal D2R-expressing neurons)): no SBI-553 effects were observed
methamphetamine-induced hyperlocomotion ([17]; D1RCre animals (β-arrestin2 deletion in D1R-expressing neurons)): effectively reduced
methamphetamine-induced hyperlocomotion ([17]; D2R-Cre mice (β-arrestin2 deletion in D2R-expressing neurons)): failed to affect locomotion
methamphetamine-induced hyperlocomotion ([17]; DAT-Cre mice (deletion in midbrain D2R-expressing neurons)): reduced the methamphetamine-induced hyperlocomotion
cocaine-induced hyperlocomotion ([17]; WT mice on C57BL/6J background): decrease
methamphetamine-induced hyperlocomotion ([17]; WT mice on C57BL/6J background, methamphetamine 2 mg/kg i.p.): decrease
cocaine-induced hyperlocomotion ([17]; global β-arrestin2 knockout mice): a significant reduction in locomotion was absent
methamphetamine-induced hyperlocomotion ([17]; global β-arrestin2 knockout mice, methamphetamine 2 mg/kg i.p.): a significant reduction in locomotion was absent
methamphetamine-induced hyperlocomotion ([17]; β-arrestin2 f/f Cre negative littermate controls): effectively reduced
lever discrimination (percent responses at active and inactive levers) ([18]; 12 mg/kg i.p., 3-day test): lever discrimination was unchanged
activity at the inactive lever [18, 22]: unchanged across treatments
cocaine intake, level of the vehicle control [18, 22]: less than 20%
latency to initiate lever responding [18, 22]: increased the latency to initiate lever responding
percent of lever responses during the post-reinforcement cue period [18, 22]: reduced the percent of lever responses that occurred during the post-reinforcement cue period
cumulative self-administered cocaine reinforcements ([18]; 12 mg/kg i.p., cocaine 0.1 mg/kg/infusion, FR4, 60 min session): fewer cumulative self-administered reinforcements between 20 and 60 min
total and active lever responses ([18]; 12 mg/kg i.p., cocaine 0.1 mg/kg/infusion, relative to Vehicle and No Treatment): significantly suppressed total and active lever responses
cocaine self-administration at the highest cocaine dose ([18]; SBI-553 2, 6, 12 mg/kg i.p., cocaine 1 mg/kg/infusion): No change in self-administration
lever accuracy ([18]; SBI-553 2, 6, 12 mg/kg i.p., cocaine 0.1-1 mg/kg/infusion): not altered by SBI-553 treatment
cocaine self-administration dose-response ([18]; SBI-553 6, 12 mg/kg, cocaine 0.1, 0.3, 0.5 mg/kg/infusion): greater efficacy at lower cocaine infusion doses
pERK generation ([6]; HEK293T cells expressing human NTSR1, ligand alone, NTS 10 nM, SBI-553 10 μM): failed to elicit pERK generation
effect of pretreatment on NTS-induced pERK [6, 20]: blunted the early sharp peak in pERK
NTS-induced pERK, NTS alone vs NTS in combination with SBI-553 ([6]; HEK293 cells lacking the Gq/11 protein (Gq-null)): comparable pERK time courses
effect of pretreatment on NTS-induced pERK ([6]; β-arrestin1/2-null HEK293 cells): blocked in its entirety
L-DOPA-induced restoration of locomotion [19]: attenuated
effect on total [3H]NTS binding ([7]; 5 nM [3H]NTS, 10 μM unlabeled ligand): increased total [^3H]NTS binding
increase of NTS affinity for NTSR1 (Kd) [7, 23]: up to 3.9 fold
increase of number of available [3H]NTS binding sites (Bmax) [7, 23]: up to 3.3 fold
effect on NTS-induced IP3 production [8]: attenuated
IP3 generation [8]: neither SBI-553 nor SR142948A stimulated
